# In patent US5837687A, “Azapeptide derivative” (Fujirebio Inc., priority 1994, dated 1998):
# Where two headings read alike, the source gives them in different places. Peptide text beside a SMILES is read from it. * marks the point of attachment. Boc = CC(C)(C)OC(=O)*; OBn = c1ccc(CO*)cc1
# Target: T1, NKA receptor (Mesocricetus auratus, UniProt P51144)
# T1 construct: from tissue; host or cells: hamster respiratory tract (trachea) ring specimens
# T1 sequence (P51144 1-384): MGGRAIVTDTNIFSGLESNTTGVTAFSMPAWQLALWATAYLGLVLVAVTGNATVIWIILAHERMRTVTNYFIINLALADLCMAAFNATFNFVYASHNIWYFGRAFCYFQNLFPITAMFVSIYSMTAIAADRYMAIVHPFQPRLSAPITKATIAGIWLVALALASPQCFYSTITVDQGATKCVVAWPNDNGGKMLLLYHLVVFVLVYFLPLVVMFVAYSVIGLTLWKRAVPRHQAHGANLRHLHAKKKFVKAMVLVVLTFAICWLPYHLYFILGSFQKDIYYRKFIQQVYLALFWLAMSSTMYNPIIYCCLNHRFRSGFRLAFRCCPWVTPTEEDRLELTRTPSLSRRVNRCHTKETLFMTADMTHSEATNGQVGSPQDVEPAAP
# Assay: Activity to constriction of hamster respiratory tracts caused by NKA (isolated tissue, tension)
# Format: cell-based
# Method: The activity of the azapeptide derivative of the present invention to a NKA receptor was evaluated by the following method.
# (1) Activity to constriction of hamster respiratory tracts caused by NKA
# Respiratory tracts were taken out from male Syrian strain Golden hamsters having a body weight of 100 to 180 g, and cyclic specimens having a width of 3 to 6 mm were prepared. The specimens were incubated at 37° C. and suspended by loading a static tension of 0.5 g, in a reaction tank charged with 15 ml of a Tyrode solution (137 mM of NaCl, 2.7 mM of KCl, 1.8 mM of CaCl2, 1.02 mM of MgCl2, 11.9 mM of NaHCO3, 0.42 mM of NaH2 PO4 and 5.5 mM of glucose) in which 95% O2 -5% CO2 had been passed.
# The compound to be tested was charged into the reaction tank and maintained for 5 minutes. 1×10^-7 M of NKA was charged into the reaction tank, and tension caused thereby was recorded. The examined effect of the tested compound as an antagonist was shown by IC50.
SMILES,IC50 [nM],"IC50 (mole concentration giving 50% control of tension caused by 1×10^-7 M NKA, compound maintained 5 minutes, hamster respiratory tract specimens, read-out: IC50) [nM]"
"Cc1ccccc1CN(NC(=O)[C@H](Cc1c[nH]c2ccccc12)NC(=O)[C@H](CCC(N)=O)NC(=O)NC(C)(C)C)C(=O)NCCOCc1ccccc1 [Example 33 (3), t-Bu-NHCO-Gln-Trp-AzPhe(2-Me)-NH(CH2)2 OCH2 Ph]",0.16,
"Cc1ccc(CN(NC(=O)[C@H](Cc2c[nH]c3ccccc23)NC(=O)[C@H](CCC(N)=O)NC(=O)NC(C)(C)C)C(=O)NCCOCc2ccccc2)c(C)c1 [Example 37 (3), t-Bu-NHCO-Gln-Trp-AzPhe(2,4-diMe)-NH(CH2)2 OCH2 Ph]",0.27,
"CC(C)(C)OC(=O)N[C@@H](CC(=O)OCc1ccccc1)C(=O)N[C@@H](CCC(N)=O)C(=O)N[C@@H](Cc1c[nH]c2ccccc12)C(=O)NN(Cc1ccccc1)C(=O)NCc1ccccc1 [Example 20 (3), Boc-Asp(OBzl)-Gln-Trp-AzPhe-NHCH2 Ph]",1.7,
"CC(C)(C)OC(=O)N[C@@H](CC(=O)OCc1ccccc1)C(=O)N[C@@H](CCC(N)=O)C(=O)N[C@@H](Cc1c[nH]c2ccccc12)C(=O)NN(Cc1ccccc1)C(=O)OCc1ccccc1 [Example 28 (3), Boc-Asp(OBzl)-Gln-Trp-AzPhe-OBzl]",27,
"Cc1cccc(CN(NC(=O)[C@H](Cc2c[nH]c3ccccc23)NC(=O)[C@H](CCC(N)=O)NC(=O)NC(C)(C)C)C(=O)NCCOCc2ccccc2)c1 [Example 34 (3), t-Bu-NHCO-Gln-Trp-AzPhe(3-Me)-NH(CH2)2 OCH2 Ph]",3.9,
"NC(=O)CC[C@H](NC(=O)c1ccccc1)C(=O)N[C@@H](Cc1c[nH]c2ccccc12)C(=O)NN(Cc1ccccc1)C(=O)NCCOCc1ccccc1 [Example 4, Bz-Gln-Trp-AzPhe-NH(CH2)2 OCH2 Ph]",2.3,
"CC(C)(C)OC(=O)N[C@@H](CC(=O)OCc1ccccc1)C(=O)N[C@@H](CCC(N)=O)C(=O)N[C@@H](Cc1c[nH]c2ccccc12)C(=O)NN(Cc1ccccc1)C(=O)NCCO [Example 24 (2), Boc-Asp(OBzl)-Gln-Trp-AzPhe-NH(CH2)2 OH]",46,
"COc1ccc(CNC(=O)N(Cc2ccccc2)NC(=O)[C@H](Cc2c[nH]c3ccccc23)NC(=O)[C@H](CCC(N)=O)NC(=O)[C@H](CC(=O)OCc2ccccc2)NC(=O)OC(C)(C)C)c(OC)c1 [Example 22, Boc-Asp(OBzl)-Gln-Trp-AzPhe-NHDmob]",4900,
"COc1ccc(CNC(=O)N(Cc2ccc(OCc3ccccc3)cc2)NC(=O)[C@H](Cc2c[nH]c3ccccc23)NC(=O)[C@H](CCC(N)=O)NC(=O)OC(C)(C)C)c(OC)c1 [Example 32 (2), Boc-Gln-Trp-AzTyr(CH2 Ph)-NHDmob]",7700,
"CC(C)(C)NC(=O)N[C@@H](CCC(N)=O)C(=O)N[C@@H](Cc1c[nH]c2ccccc12)C(=O)NN(Cc1ccccc1C(F)(F)F)C(=O)NCCOCc1ccccc1 [Example 40 (3), t-Bu-NHCO-Gln-Trp-AzPhe(2-CF3)-NH(CH2)2 OCH2 Ph]",0.31,
"CC(C)(C)OC(=O)N[C@@H](CCC(N)=O)C(=O)N[C@@H](Cc1c[nH]c2ccccc12)C(=O)NN(Cc1ccccc1)C(=O)NCc1ccc(F)cc1 [Example 17 (2), Boc-Gln-Trp-AzPhe-NHCH2 Ph(4-F)]",29,
"CC(C)(C)OC(=O)N[C@@H](CCC(N)=O)C(=O)N[C@@H](Cc1c[nH]c2ccccc12)C(=O)NN(Cc1ccccc1)C(=O)NCCOCc1ccccc1 [Example 2 (2), Boc-Gln-Trp-AzPhe-NH(CH2)2 OCH2 Ph]",0.66,
"CC(C)(C)OC(=O)N[C@@H](CCC(N)=O)C(=O)N[C@@H](Cc1c[nH]c2ccccc12)C(=O)NN(Cc1ccccc1)C(=O)NCCOCc1ccc(F)cc1 [Example 18 (2), Boc-Gln-Trp-AzPhe-NH(CH2)2 OCH2 Ph(4-F)]",5.6,
"CC(C)CCC(=O)N[C@@H](CC(=O)OCc1ccccc1)C(=O)N[C@@H](CCC(N)=O)C(=O)N[C@@H](Cc1c[nH]c2ccccc12)C(=O)NN(Cc1ccccc1)C(=O)NCc1ccccc1 [Example 21, i-Pent-CO-Asp(OBzl)-Gln-Trp-AzPhe-NHCH2 Ph]",1.7,
"CC(C)(C)NC(=O)N[C@@H](CCC(N)=O)C(=O)N[C@@H](Cc1c[nH]c2ccccc12)C(=O)NN(Cc1ccccc1)C(=O)NCCOC(c1ccccc1)c1ccccc1 [Example 44 (2), t-Bu-NHCO-Gln-Trp-AzPhe-NH(CH2)2 O-benzhydryl]",230,
"CC(C)(C)NC(=O)N[C@@H](CCC(N)=O)C(=O)N[C@@H](Cc1c[nH]c2ccccc12)C(=O)NN(Cc1ccccc1)C(=O)NCCOCc1cccnc1 [Example 42 (3), t-Bu-NHCO-Gln-Trp-AzPhe-NH(CH2)2 O-(3-pyridylmethyl)]",16,
"CC(C)c1ccc(CN(NC(=O)[C@H](Cc2c[nH]c3ccccc23)NC(=O)[C@H](CCC(N)=O)NC(=O)NC(C)(C)C)C(=O)NCCOCc2ccccc2)cc1 [Example 36 (3), t-Bu-NHCO-Gln-Trp-AzPhe(4-iPr)-NH(CH2)2 OCH2 Ph]",69,
"CC(C)(C)NC(=O)N[C@@H](CCC(N)=O)C(=O)N[C@@H](Cc1c[nH]c2ccccc12)C(=O)NN(Cc1ccc(F)cc1)C(=O)NCCOCc1ccccc1 [Example 31, t-Bu-NHCO-Gln-Trp-AzPhe(4-F)-NH(CH2)2 OCH2 Ph]",0.42,
"CC(C)(C)NC(=O)N[C@@H](CCC(N)=O)C(=O)N[C@@H](Cc1c[nH]c2ccccc12)C(=O)NN(Cc1ccccc1F)C(=O)NCCOCc1ccccc1 [Example 39 (3), t-Bu-NHCO-Gln-Trp-AzPhe(2-F)-NH(CH2)2 OCH2 Ph]",0.61,
"CC(C)(C)OC(=O)N[C@@H](CC(=O)OCc1ccccc1)C(=O)N[C@@H](CCC(N)=O)C(=O)N[C@@H](Cc1c[nH]c2ccccc12)C(=O)NN(Cc1ccccc1)C(=O)N1CCOCC1 [Example 26 (3), Boc-Asp(OBzl)-Gln-Trp-AzPhe-M]",830,
"CC(C)CCC(=O)N[C@@H](CCC(N)=O)C(=O)N[C@@H](Cc1c[nH]c2ccccc12)C(=O)NN(Cc1ccccc1)C(=O)NCCOCc1ccccc1 [Example 3, i-Pent-CO-Gln-Trp-AzPhe-NH(CH2)2 OCH2 Ph]",0.6,
"CC(C)(C)OC(=O)N[C@@H](CCC(N)=O)C(=O)N[C@@H](Cc1c[nH]c2ccccc12)C(=O)NN(Cc1ccc(F)cc1)C(=O)NCCOCc1ccccc1 [Example 30 (2), Boc-Gln-Trp-AzPhe(4-F)-NH(CH2)2 OCH2 Ph]",1.1,
"CC(C)(C)OC(=O)N[C@@H](CC(N)=O)C(=O)N[C@@H](Cc1c[nH]c2ccccc12)C(=O)NN(Cc1ccccc1)C(=O)NCCOCc1ccccc1 [Example 10, Boc-Asn-Trp-AzPhe-NH(CH2)2 OCH2 Ph]",6.8,
"CC(C)(C)OC(=O)N[C@@H](CC(=O)OCc1ccccc1)C(=O)N[C@@H](CCC(N)=O)C(=O)N[C@@H](Cc1c[nH]c2ccccc12)C(=O)NN(Cc1ccccc1)C(=O)Nc1ccccc1 [Example 29 (3, Boc-Asp(OBzl)-Gln-Trp-AzPhe-NHPh]",190,
"CC(C)(C)OC(=O)N[C@@H](CC(=O)OCc1ccccc1)C(=O)N[C@@H](CCC(N)=O)C(=O)N[C@@H](Cc1c[nH]c2ccccc12)C(=O)N[C@@H](Cc1ccccc1)C(N)=O [Reference example 14, Boc-Asp(OBzl)-Gln-Trp-Phe-NH2, reference compound] (Boc-D(OBn)QWF-NH2)",,330
"CC(C)(C)OC(=O)N[C@@H](CCS(C)(=O)=O)C(=O)N[C@@H](Cc1c[nH]c2ccccc12)C(=O)NN(Cc1ccccc1)C(=O)NCCOCc1ccccc1 [Example 9, Boc-Met(O2)-Trp-AzPhe-NH (CH2)2 OCH2 Ph]",1.4,
"CC(C)(C)OC(=O)N[C@@H](CC(=O)OCc1ccccc1)C(=O)N[C@@H](CCC(N)=O)C(=O)N[C@H](Cc1c[nH]c2ccccc12)C(=O)NN(Cc1ccccc1)C(N)=O [Example 27 (3), Boc-Asp(OBzl)-Gln-D-Trp-AzPhe-NH2]",990,
